This note sets out measurements from ChEMBL document CHEMBL2401616, “A novel amalgamation of 1,2,3-triazoles, piperidines and thieno pyridine rings and evaluation of their antifungal activity” (2013).

In assay [1] the test system is Aspergillus flavus. The assay can be described thus: Antifungal activity against Aspergillus flavus NCIM 539 assessed as growth inhibition by agar dilution method. It is filed as functional.
For assay [2], the system named is Cryptococcus neoformans. In words: Antifungal activity against Cryptococcus neoformans NCIM 576 assessed as growth inhibition by agar dilution method. It counts as functional. For orientation: In agar dilution, organisms are placed on agar that contains the substance at set levels.
For assay [3], the system named is Aspergillus niger. The assay can be described thus: Antifungal activity against Aspergillus niger NCIM 1196 assessed as growth inhibition by agar dilution method. It is filed as functional.
The subject of another assay is Candida albicans. The assay can be described thus: Antifungal activity against Candida albicans NCIM 3471 assessed as growth inhibition by agar dilution method. It is filed as functional.
Assay [4] concerns Fusarium oxysporum. The assay can be described thus: Antifungal activity against Fusarium oxysporum NCIM 1332 assessed as growth inhibition by agar dilution method. It is filed as functional.
Assay [5] has as its system Fusarium oxysporum. The assay can be described thus: Antifungal activity against Fusarium oxysporum NCIM 1332 assessed as growth inhibition up to 200 ug/mL by agar dilution method. It counts as functional, organism-based.
In assay [6] the test system is Aspergillus niger. The assay can be described thus: Antifungal activity against Aspergillus niger NCIM 1196 assessed as growth inhibition up to 200 ug/mL by agar dilution method. It is filed as functional, organism-based.
Assay [7] concerns Cryptococcus neoformans. The assay can be described thus: Antifungal activity against Cryptococcus neoformans NCIM 576 assessed as growth inhibition up to 200 ug/mL by agar dilution method. It is filed as functional, organism-based.
In assay [8] the test system is Aspergillus flavus. The assay can be described thus: Antifungal activity against Aspergillus flavus NCIM 539 assessed as growth inhibition up to 200 ug/mL by agar dilution method. It is filed as functional, organism-based.

Converted amounts (≈) assume the structure as drawn. The source made the active and inactive calls.

In the case of `c1ccc(CN2CCC(n3cc(CN4CCc5sccc5C4)nn3)CC2)cc1`, the MIC (in general, the smallest concentration in the dilution series that meets the test's criterion for growth inhibition) with Aspergillus flavus [1] stood at 60 µg/mL (≈ 152 µM); in the assay with Cryptococcus neoformans [2], 90 µg/mL (≈ 229 µM); in the assay on Aspergillus niger [3], 100 µg/mL (≈ 254 µM); in the assay on Candida albicans, 50 µg/mL (≈ 127 µM); in the assay with Fusarium oxysporum [4], 75 µg/mL (≈ 191 µM).

As to `O=C(c1ccccc1)N1CCC(n2cc(CN3CCc4sccc4C3)nn2)CC1`, the values for the MIC in the assay with Aspergillus flavus [1], with Cryptococcus neoformans [2] and in the assay on Candida albicans were 65 µg/mL (≈ 159 µM), 100 µg/mL (≈ 245 µM) and 90 µg/mL (≈ 221 µM), respectively. In addition, the “growth inhibition (GI)” value in the assay with Fusarium oxysporum [5] and in the assay with Aspergillus niger [6] was “inactive” throughout.

For the molecule `CCN1CCC(n2cc(CN3CCc4sccc4C3)nn2)CC1`, the MIC came to 35 µg/mL (≈ 106 µM) with Aspergillus flavus [1]; 150 µg/mL (≈ 453 µM) in the assay with Cryptococcus neoformans [2]; 47.5 µg/mL (≈ 143 µM) with Aspergillus niger [3]; 90 µg/mL (≈ 272 µM) in the assay with Candida albicans; 100 µg/mL (≈ 302 µM) with Fusarium oxysporum [4].

With `CS(=O)(=O)N1CCC(n2cc(CN3CCc4sccc4C3)nn2)CC1`, the MIC in the assay with Aspergillus flavus [1] was determined as 40 µg/mL (≈ 105 µM); with Cryptococcus neoformans [2], 25 µg/mL (≈ 65.5 µM); in the assay on Aspergillus niger [3] it was 40 µg/mL (≈ 105 µM); with Candida albicans it was 50 µg/mL (≈ 131 µM); with Fusarium oxysporum [4] it was 30 µg/mL (≈ 78.6 µM).

In the case of `c1cc2c(s1)CCN(Cc1cn(C3CCNCC3)nn1)C2`, the MIC with Aspergillus flavus [1] is 60 µg/mL (≈ 198 µM); with Cryptococcus neoformans [2], 100 µg/mL (≈ 330 µM); with Aspergillus niger [3], 100 µg/mL (≈ 330 µM); with Candida albicans, 50 µg/mL (≈ 165 µM); with Fusarium oxysporum [4], 90 µg/mL (≈ 297 µM).

For `Cc1ccc(S(=O)(=O)N2CCC(n3cc(CN4CCc5sccc5C4)nn3)CC2)cc1`, the minimal inhibitory concentration (MIC) with Aspergillus flavus [1] came out at 45 µg/mL (≈ 98.3 µM); in the assay with Cryptococcus neoformans [2] it was 40 µg/mL (≈ 87.4 µM); with Aspergillus niger [3], 37.5 µg/mL (≈ 81.9 µM); with Candida albicans, 60 µg/mL (≈ 131 µM); in the assay on Fusarium oxysporum [4], 70 µg/mL (≈ 153 µM).

For `Clc1ccc(COC(Cn2ccnc2)c2ccc(Cl)cc2Cl)c(Cl)c1` (stereo not given) [MICONAZOLE], the minimum inhibitory concentration (MIC) in the assay with Aspergillus flavus [1] came to 12.5 µg/mL (≈ 30 µM); in the assay with Cryptococcus neoformans [2], 25 µg/mL (≈ 60.1 µM); in the assay with Aspergillus niger [3] it was 12.5 µg/mL (≈ 30 µM); in the assay with Candida albicans, 25 µg/mL (≈ 60.1 µM); in the assay on Fusarium oxysporum [4], 25 µg/mL (≈ 60.1 µM).

Consider `CC(C)C(=O)N1CCC(n2cc(CN3CCc4sccc4C3)nn2)CC1`, for which the minimum inhibitory concentration (MIC) was found to be 35 µg/mL (≈ 93.7 µM) in the assay on Aspergillus flavus [1]; 150 µg/mL (≈ 402 µM) in the assay with Cryptococcus neoformans [2]; 47.5 µg/mL (≈ 127 µM) in the assay with Aspergillus niger [3]; 100 µg/mL (≈ 268 µM) with Candida albicans; 100 µg/mL (≈ 268 µM) in the assay on Fusarium oxysporum [4].

With `O=C(c1ccc(Cl)cc1)N1CCC(n2cc(CN3CCc4sccc4C3)nn2)CC1`, the MIC in the assay with Aspergillus flavus [1] came out at 40 µg/mL (≈ 90.5 µM); in the assay with Cryptococcus neoformans [2], 45 µg/mL (≈ 102 µM); with Aspergillus niger [3] it was 42.5 µg/mL (≈ 96.2 µM); in the assay with Candida albicans, 45 µg/mL (≈ 102 µM); with Fusarium oxysporum [4] it was 40 µg/mL (≈ 90.5 µM).

`CN1CCC(n2cc(CN3CCc4sccc4C3)nn2)CC1`: the minimum inhibitory concentration (MIC) was 40 µg/mL (≈ 126 µM) with Aspergillus flavus [1], 40 µg/mL (≈ 126 µM) in the assay with Candida albicans and 70 µg/mL (≈ 220 µM) in the assay on Fusarium oxysporum [4]. Moreover, the “growth inhibition (GI)” value in the assay with Aspergillus niger [6] and in the assay on Cryptococcus neoformans [7] was “inactive” throughout.

For the molecule `CC(=O)N1CCC(n2cc(CN3CCc4sccc4C3)nn2)CC1`, the “growth inhibition (GI)” value in the assay with Aspergillus flavus [8] and in the assay on Cryptococcus neoformans [7] was “inactive” in each case. Further, the minimal inhibitory concentration (MIC) in the assay with Aspergillus niger [3] came to 100 µg/mL (≈ 289 µM); in the assay on Candida albicans, 40 µg/mL (≈ 116 µM); in the assay with Fusarium oxysporum [4] it was 45 µg/mL (≈ 130 µM).

`CCC(=O)N1CCC(n2cc(CN3CCc4sccc4C3)nn2)CC1`: the minimal inhibitory concentration (MIC) with Aspergillus flavus [1] came out at 30 µg/mL (≈ 83.4 µM); with Candida albicans it was 50 µg/mL (≈ 139 µM); in the assay on Fusarium oxysporum [4], 60 µg/mL (≈ 167 µM). For the same molecule, the “growth inhibition (GI)” value with Aspergillus niger [6] and with Cryptococcus neoformans [7] was “inactive” throughout.
